Results reported in patent EP0419081A2, “Method for protein binding enzyme complementation assays” (MICROGENICS CORPORATION, priority 1989, dated 1991).
Like-named read-outs stand apart in the source and are kept apart here.

Tests used:
FBP = target: T1, FBP (Bos taurus, UniProt P02702); experiment: Folate dose response; type: biochemical; conditions: for 5′- 9′: rate OD₄₂₀ 5 to 9 min, FBP 1:1000, ED14-folate #34
T1 construct: purchased Scripps
Method: The following buffer systems and reagents were used and will be abbreviated as stated below: • 1. Sample buffer; 100 mM sodium phosphate, 20 mM sodium azide and 0.2% BSA. • 2. Assay buffer pH 7.0; 10 mM ethylene glycol tetraacetic acid, 2 mM magnesium acetate, 20 mM sodium azide, 150 mM sodium phosphate, 100 mM potassium phosphate, 0.05% Tween 20, 0.05 mM dithiothreitol, adjusted to pH 7.0. • 3. EA; enzyme acceptor • 4. ED; enzyme donor • 5. FBP Scripps; folate binding protein from Scripps 2.25 mg/ml stock • 6. CPRG; chlorophenol red β-D galactopyranoside • 7. ONPG: 2-nitrophenol β-D galactopyranoside
A folate dose response was elicited as follows. The following reagents were prepared; EA at a concentration of 3750 nM in Assay buffer p8 7.0, ED14-folate (fraction #34) at a concentration of 26.66 nM in Assay/ONPG buffer pH 7.0, FBP at a dilution of 1:1000 in sample buffer and folic acid standards at 0, 2.5, 5.0, 10.0 and 20.0 ng/ml in sample buffer. […] Rates were calculated by subtracting the OD₄₂₀ at 5 min from the OD₄₂₀ at 9 min.

[1] = test system: analyte specific antiserum; experiment: Immunopurity by precipitation of the enzyme donor conjugate with antibody; type: binding; conditions: % of ED conjugate activity which can be removed by analyte specific antiserum
Method: Immunopurity was determined by precipitation of the enzyme donor conjugate with anti-T4 antibody TgG Sorbheads. The ED is incubated with primary antibody at room temperature for 15 min on a rocker shaker. Secondary antibody is added and incubation continued for 15 min. The suspension is centrifuged and an aliquot of the supernatant is saved for the assay. The above cycle is repeated on the remaining supernatant for a total of five cycles. […] The ED concentration during incubation is 20 nM. Assay concentrations are EA 500 nM; ED, 4 nM; and ONPG, 1mg/ml. Immunopurity is expressed as percent of ED activity precipitable by primary antibody.

[2] = test system: anti-T4 antibody (T4-pool 393A); experiment: Immunochemical testing on the Encore, T4 conjugates; type: biochemical
Method: The immunochemical testing was performed on the Encore. […] The ligand concentrations employed are indicated in the legend to the table. The ED and antibody were preincubated on the rotor for 15 min at 37°C. All antibody concentrations were assayed in duplicate. No correction was made for variations of total protein in the assays.

EA = experiment: Equilibrium specific activity; type: biochemical; conditions: ED and EA incubated together for 18 hours
anti-T4 antibody = experiment: Affinity constant by ED titration, Scatchard plot, T4 conjugates; type: binding; conditions: ED titration against fixed anti-T4 Ab, no secondary antibody
Method: The Ka was determined as follows: To determine the affinity constant of an antibody for an experimental ED conjugate, an ED titration against a fixed antibody is carried out. Antibody binding to the conjugated ED is monitored by inhibition of formation of active enzyme as indicated by a decrease in chromogenic substrate turnover. The resulting data is plotted in a Scatchard format (Bound/Free vs. [Bound]). The slope of the line generated is equal to ∼KA in L/mole.

EA23 = test system: EA23
Method: This example illustrates an immunoassay for thyroxine as analyte using H6-thyroxine conjugate as enzyme-donor, EA23 as enzyme-acceptor, anti-thyroxine antibody and a series of concentrations of thyroxine.
Reagents for the assay were prepared as follows: L-thyroxine standard: 2.6 mg L-thyroxine (Sigma Chemical, St. Louis, MO) was dissolved in 200 µl absolute ethanol and 800 µl 0.15M NaHCO₃ added and the mixture stored at 25°C. Two fold dilutions of thyroxine were prepared in ethanol: 0.15M NaHCO₃ (1:4). L-thyroxine antibody: Antisera to thyroxine (T4) was purchased from Western Chemical Research Corp., Denver, CO. Several lots were tested for titer and an equilibrium constant determined in a radio-immunoassay with IgM Sorb (Enzyme Center, Malden, MA). […] EA23 acceptor-enzyme: 6.3X10-⁷M in storage buffer. Substrate: o-nitrophenyl-β-D-galactopyranoside (ONPG) was dissolved in 2.5 X Z buffer to a final concentration 10 mg/ml solution.
The assay was performed in microtiter plates (Dynatech Cat. #001-012-9200 American Scientific Products, Sunnyvale, CA) and read on a Titertak Multiscan microtiter plate reader fitted with a 414 nm filter (Flow Laboratories, Rockville, MO). To each well was added 100 µl of PM2 buffer containing 0.05% Tween 20 (polyoxyethylene sorbitan monolaurate) (Sigma Chemical Co., St. Louis, MO). To each well was added sequentially 2.5 µl H6-thyroxine conjugate, 2.5 µl of anti-thyroxine antibody, 2.5 µl of the thyroxine standards and 40 µl of EA23.

T1 sequence (P02702 20-234): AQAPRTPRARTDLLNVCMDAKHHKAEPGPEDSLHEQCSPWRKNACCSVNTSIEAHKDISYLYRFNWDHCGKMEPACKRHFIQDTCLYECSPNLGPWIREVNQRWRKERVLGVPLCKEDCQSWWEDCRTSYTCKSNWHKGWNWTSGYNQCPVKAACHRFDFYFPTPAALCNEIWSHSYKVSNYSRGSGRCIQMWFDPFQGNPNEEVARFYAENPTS

Row | Compound | % Mod (FBP; folic acid standard 5.0 ng/ml) [%] | Net (FBP; folic acid standard 5.0 ng/ml) | 5′- 9′ (FBP; folic acid standard 5.0 ng/ml) | % Mod (FBP; folic acid standard 10.0 ng/ml) [%] | Net (FBP; folic acid standard 10.0 ng/ml) | 5′- 9′ (FBP; folic acid standard 10.0 ng/ml) | % Mod (FBP; folic acid standard 20.0 ng/ml) [%] | Net (FBP; folic acid standard 20.0 ng/ml) | 5′- 9′ (FBP; folic acid standard 20.0 ng/ml) | Immuno-Purity [1] [%] | Immunochemical Testing %I 1/2Sat ([2]; T4-pool 393A at 1:12,000, ED titrated until one-half of Ab binding sites saturated, no secondary antibody) [%] | Immunochemical Testing (0.125 nM Sys [ED]) ([2]; maximum amount of complementation inhibition, ED system concentration 0.125 nM, Ab constant) [%] | Specific Activity (u/mg) (% ED4-T4) Equilibrium (EA) [%] | Ka (L/mole) x10-9 (anti-T4 antibody) [L/mole x10-9] | OD₄₁₅ (EA23; Well 2: ED₄-T4 2.5 µl only, no EA) | OD₄₁₅ (EA23; Well 3: ED₄-T4 2.5 µl, EA 40 µl) | OD₄₁₅ (EA23; Well 4: ED₄-T4 2.5 µl, Antibody 2.5 µl, EA 40 µl) | OD₄₁₅ (EA23; Well 5: ED₄-T4 2.5 µl, Antibody 2.5 µl, Thyroxine 6.25 µg/µl, EA 40 µl) | OD₄₁₅ (EA23; Well 6: ED₄-T4 2.5 µl, Antibody 2.5 µl, Thyroxine 12.5 µg/µl, EA 40 µl) | OD₄₁₅ (EA23; Well 7: ED₄-T4 2.5 µl, Antibody 2.5 µl, Thyroxine 25 µg/µl, EA 40 µl)
1 | Nc1nc2ncc(CNc3ccc(C(=O)N[C@@H](CCC(=O)O)C(=O)O)cc3)nc2c(=O)[nH]1 [folic acid] | 13.4 | 52 | 388.5 | 24.1 | 107 | 443.5 | 40.0 | 2255 | 562 | – | – | – | – | – | – | – | – | – | – | –
2 | m-maleimide-benzoyl-L-Thyroxine-ED₄ conjugate [ED4T4] | – | – | – | – | – | – | – | – | – | 96 | 34 | 47 | 100 | 1.97 | 0.001 | 0.595 | 0.300 | 0.312 | 0.320 | 0.364
